Measured values taken from US12459918B2, “Isoquinolinone derivatives serving as rock protein kinase inhibitors and use thereof” (GUANGZHOU OCUSUN OPHTHALMIC BIOTECHNOLOGY CO., LTD., priority 2019, dated 2025).

Test system: New Zealand rabbits with normal intraocular pressure
Assay: Intraocular pressure reduction experiment in New Zealand rabbits with normal intraocular pressure
Assay type: in vivo
Conditions: for Intraocular pressure in the left eye: left eye (saline or solvent); for Reduction magnitude of intraocular pressure: left minus right eye
From the text: Experimental Example 2. Intraocular Pressure Reduction Experiment in New Zealand Rabbits with Normal Intraocular Pressure
Rabbits with normal intraocular pressure were adopted to screen intraocular pressure reduction actions of the potential compounds by eye-drop administration.
Male New Zealand rabbits, aged 97-127 days, weighted 2.65-3.5 kg, purchased from PizhouDongfang Breeding Co. Ltd.
The male New Zealand rabbits were randomly divided into 8 rabbits/per group using a computer-generated randomization method Animals in each group were eye-dropped with different test samples in the right eye, and normal saline or solvent in the left eye, and the volume of the administration was both 50 μL/eye. The intraocular pressure of the animals was measured before administration and in 1, 2, 4, 6, 8 and 10 hours after the administration, respectively.

SMILES: Cc1cn(COC(=O)c2ccccc2)c(=O)c2cccc(S(=O)(=O)N3CCC(N)C3)c12 (stereo not shown) [Compound 60]
- Intraocular pressure in the left eye (2.5 mg/mL group, 1 hour after administration): 11.63 mmHg
- Intraocular pressure in the left eye (2.5 mg/mL group, 2 hours after administration): 11.58 mmHg
- Intraocular pressure in the left eye (2.5 mg/mL group, 4 hours after administration): 12.83 mmHg
- Intraocular pressure in the left eye (2.5 mg/mL group, 6 hours after administration): 12.38 mmHg
- Intraocular pressure in the left eye (2.5 mg/mL group, 8 hours after administration): 12.29 mmHg
- Intraocular pressure in the left eye (2.5 mg/mL group, 10 hours after administration): 14.33 mmHg
- Intraocular pressure in the left eye (2.5 mg/mL group, before administration): 12.13 mmHg
- Intraocular pressure in the right eye (2.5 mg/mL in right eye, 1 hour after administration): 8.38 mmHg
- Intraocular pressure in the right eye (2.5 mg/mL in right eye, 2 hours after administration): 7.58 mmHg
- Intraocular pressure in the right eye (2.5 mg/mL in right eye, 4 hours after administration): 9.04 mmHg
- Intraocular pressure in the right eye (2.5 mg/mL in right eye, 6 hours after administration): 9.88 mmHg
- Intraocular pressure in the right eye (2.5 mg/mL in right eye, 8 hours after administration): 11.33 mmHg
- Intraocular pressure in the right eye (2.5 mg/mL in right eye, 10 hours after administration): 13.71 mmHg
- Intraocular pressure in the right eye (2.5 mg/mL in right eye, before administration): 12.38 mmHg
- Reduction magnitude of intraocular pressure (2.5 mg/mL, 1 hour after administration): 3.25 mmHg
- Reduction magnitude of intraocular pressure (2.5 mg/mL, 2 hours after administration): 4 mmHg
- Reduction magnitude of intraocular pressure (2.5 mg/mL, 4 hours after administration): 3.79 mmHg
- Reduction magnitude of intraocular pressure (2.5 mg/mL, 6 hours after administration): 2.5 mmHg
- Reduction magnitude of intraocular pressure (2.5 mg/mL, 8 hours after administration): 0.96 mmHg
- Reduction magnitude of intraocular pressure (2.5 mg/mL, 10 hours after administration): 0.62 mmHg
- Reduction magnitude of intraocular pressure (2.5 mg/mL, before administration): −0.25 mmHg
- Intraocular pressure in the left eye (5.0 mg/mL group, 1 hour after administration): 11.33 mmHg
- Intraocular pressure in the left eye (5.0 mg/mL group, 2 hours after administration): 11.42 mmHg
- Intraocular pressure in the left eye (5.0 mg/mL group, 4 hours after administration): 12.63 mmHg
- Intraocular pressure in the left eye (5.0 mg/mL group, 6 hours after administration): 12.75 mmHg
- Intraocular pressure in the left eye (5.0 mg/mL group, 8 hours after administration): 13.29 mmHg
- Intraocular pressure in the left eye (5.0 mg/mL group, 10 hours after administration): 14.08 mmHg
- Intraocular pressure in the left eye (5.0 mg/mL group, before administration): 11.79 mmHg
- Intraocular pressure in the right eye (5.0 mg/mL in right eye, 1 hour after administration): 7.83 mmHg
- Intraocular pressure in the right eye (5.0 mg/mL in right eye, 2 hours after administration): 7.00 mmHg
- Intraocular pressure in the right eye (5.0 mg/mL in right eye, 4 hours after administration): 7.79 mmHg
- Intraocular pressure in the right eye (5.0 mg/mL in right eye, 6 hours after administration): 8.54 mmHg
- Intraocular pressure in the right eye (5.0 mg/mL in right eye, 8 hours after administration): 10.13 mmHg
- Intraocular pressure in the right eye (5.0 mg/mL in right eye, 10 hours after administration): 12.54 mmHg
- Intraocular pressure in the right eye (5.0 mg/mL in right eye, before administration): 11.75 mmHg
- Reduction magnitude of intraocular pressure (5.0 mg/mL, 1 hour after administration): 3.5 mmHg
- Reduction magnitude of intraocular pressure (5.0 mg/mL, 2 hours after administration): 4.42 mmHg
- Reduction magnitude of intraocular pressure (5.0 mg/mL, 4 hours after administration): 4.84 mmHg
- Reduction magnitude of intraocular pressure (5.0 mg/mL, 6 hours after administration): 4.21 mmHg
- Reduction magnitude of intraocular pressure (5.0 mg/mL, 8 hours after administration): 3.16 mmHg
- Reduction magnitude of intraocular pressure (5.0 mg/mL, 10 hours after administration): 1.54 mmHg
- Reduction magnitude of intraocular pressure (5.0 mg/mL, before administration): 0.04 mmHg
- Intraocular pressure in the left eye (10.0 mg/mL group, 1 hour after administration): 12.08 mmHg
- Intraocular pressure in the left eye (10.0 mg/mL group, 2 hours after administration): 12.08 mmHg
- Intraocular pressure in the left eye (10.0 mg/mL group, 4 hours after administration): 12.96 mmHg
- Intraocular pressure in the left eye (10.0 mg/mL group, 6 hours after administration): 12.38 mmHg
- Intraocular pressure in the left eye (10.0 mg/mL group, 8 hours after administration): 13.04 mmHg
- Intraocular pressure in the left eye (10.0 mg/mL group, 10 hours after administration): 13.38 mmHg
- Intraocular pressure in the left eye (10.0 mg/mL group, before administration): 11.96 mmHg
- Intraocular pressure in the right eye (10.0 mg/mL in right eye, 1 hour after administration): 7.96 mmHg
- Intraocular pressure in the right eye (10.0 mg/mL in right eye, 2 hours after administration): 6.42 mmHg
- Intraocular pressure in the right eye (10.0 mg/mL in right eye, 4 hours after administration): 7.13 mmHg
- Intraocular pressure in the right eye (10.0 mg/mL in right eye, 6 hours after administration): 8.00 mmHg
- Intraocular pressure in the right eye (10.0 mg/mL in right eye, 8 hours after administration): 9.42 mmHg
- Intraocular pressure in the right eye (10.0 mg/mL in right eye, 10 hours after administration): 10.96 mmHg
- Intraocular pressure in the right eye (10.0 mg/mL in right eye, before administration): 11.33 mmHg
- Reduction magnitude of intraocular pressure (10.0 mg/mL, 1 hour after administration): 4.12 mmHg
- Reduction magnitude of intraocular pressure (10.0 mg/mL, 2 hours after administration): 5.66 mmHg
- Reduction magnitude of intraocular pressure (10.0 mg/mL, 4 hours after administration): 5.83 mmHg
- Reduction magnitude of intraocular pressure (10.0 mg/mL, 6 hours after administration): 4.38 mmHg
- Reduction magnitude of intraocular pressure (10.0 mg/mL, 8 hours after administration): 3.62 mmHg
- Reduction magnitude of intraocular pressure (10.0 mg/mL, 10 hours after administration): 2.42 mmHg
- Reduction magnitude of intraocular pressure (10.0 mg/mL, before administration): 0.63 mmHg
- Intraocular pressure in the left eye (20 mg/mL group, 1 hour after administration): 12.42 mmHg
- Intraocular pressure in the left eye (20 mg/mL group, 2 hours after administration): 12.96 mmHg
- Intraocular pressure in the left eye (20 mg/mL group, 4 hours after administration): 13.17 mmHg
- Intraocular pressure in the left eye (20 mg/mL group, 6 hours after administration): 12.54 mmHg
- Intraocular pressure in the left eye (20 mg/mL group, 8 hours after administration): 13.17 mmHg
- Intraocular pressure in the left eye (20 mg/mL group, 10 hours after administration): 13.71 mmHg
- Intraocular pressure in the left eye (20 mg/mL group, before administration): 12.63 mmHg
- Intraocular pressure in the right eye (20 mg/mL in right eye, 1 hour after administration): 10.21 mmHg
- Intraocular pressure in the right eye (20 mg/mL in right eye, 2 hours after administration): 7.17 mmHg
- Intraocular pressure in the right eye (20 mg/mL in right eye, 4 hours after administration): 7.92 mmHg
- Intraocular pressure in the right eye (20 mg/mL in right eye, 6 hours after administration): 7.63 mmHg
- Intraocular pressure in the right eye (20 mg/mL in right eye, 8 hours after administration): 8.83 mmHg
- Intraocular pressure in the right eye (20 mg/mL in right eye, 10 hours after administration): 10.83 mmHg
- Intraocular pressure in the right eye (20 mg/mL in right eye, before administration): 12.42 mmHg
- Reduction magnitude of intraocular pressure (20 mg/mL, 1 hour after administration): 2.21 mmHg
- Reduction magnitude of intraocular pressure (20 mg/mL, 2 hours after administration): 5.79 mmHg
- Reduction magnitude of intraocular pressure (20 mg/mL, 4 hours after administration): 5.25 mmHg
- Reduction magnitude of intraocular pressure (20 mg/mL, 6 hours after administration): 4.91 mmHg
- Reduction magnitude of intraocular pressure (20 mg/mL, 8 hours after administration): 4.34 mmHg
- Reduction magnitude of intraocular pressure (20 mg/mL, 10 hours after administration): 2.88 mmHg
- Reduction magnitude of intraocular pressure (20 mg/mL, before administration): 0.21 mmHg
- Reduction of intraocular pressure (concentrations of 2.5, 5 and 10 mg/mL): remarkably significant reduction of intraocular pressure
